{
  "source": "patent US20130165446A1",
  "about": "(priority 2010, published 2013)",
  "key": {"[1]": {"molecular_target": "T1, human recombinant (CHO cell) AT1 receptor (Homo sapiens, UniProt P30556)", "T1 construct": "expressed in transfected cells; host or cells: CHO cells", "T1 sequence (P30556 1-359)": "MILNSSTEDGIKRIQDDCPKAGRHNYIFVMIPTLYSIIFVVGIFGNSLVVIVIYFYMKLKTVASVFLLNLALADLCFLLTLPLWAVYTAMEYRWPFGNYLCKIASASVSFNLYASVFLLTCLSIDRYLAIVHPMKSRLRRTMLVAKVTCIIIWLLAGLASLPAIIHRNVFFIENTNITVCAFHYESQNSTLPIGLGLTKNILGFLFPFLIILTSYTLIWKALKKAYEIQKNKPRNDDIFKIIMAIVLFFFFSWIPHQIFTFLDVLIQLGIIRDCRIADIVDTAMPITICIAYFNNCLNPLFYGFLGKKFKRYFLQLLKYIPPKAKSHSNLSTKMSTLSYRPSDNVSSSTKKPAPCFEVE", "assay": "Angiotensin II inhibition test (radioligand binding to AT1 receptor)", "conditions": "test compound concentration 10^−9 M; radioactive iodine-labeled angiotensin II, 37° C., sixty minutes; read-out: Inhibition rate (%)", "experimental": "A test of inhibition of angiotensin II to human recombinant (CHO cell) AT1 receptor following a method described in the literature (for example, Regul. Pept., vol. 44 (2), page 131 (1993)) was used to measure inhibitory activity to a test compound.\nThe ligand used was 10^−9 M of a test compound dissolved in 1% DMSO (dimethylsulfoxide). This was reacted with radioactive iodine-labeled angiotensin II at 37° C. for sixty minutes. Taking the inhibition rate of angiotensin II at 10 μM as nonspecific binding, the specific binding rate was calculated by subtracting this nonspecific portion. Table 6 indicates the results (the inhibition rate at test compound concentration: 10^−9 M)"}, "[2]": {"molecular_target": "T2, human nuclear receptor PPARβ (Homo sapiens, UniProt Q03181)", "T2 sequence (Q03181 211-439 limits assumed)": "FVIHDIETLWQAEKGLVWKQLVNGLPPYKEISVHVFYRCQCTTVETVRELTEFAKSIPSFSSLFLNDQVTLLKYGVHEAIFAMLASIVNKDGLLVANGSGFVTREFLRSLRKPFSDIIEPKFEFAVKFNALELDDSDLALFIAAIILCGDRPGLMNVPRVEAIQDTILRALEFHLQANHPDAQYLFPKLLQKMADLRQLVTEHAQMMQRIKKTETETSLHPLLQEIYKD", "assay": "PPAR agonist activity measurement test (cell-free FRET cofactor assay), PPARβ", "type": "biochemical", "conditions": "result in words", "experimental": "(§1) Agonist activity to the human nuclear receptors PPARα, β, and γ was measured using a biochemical fluorescent resonance energy transfer (FRET) assay system, which is a cell-free assay system, following a method described in the literature (for example, J. Biol. Chem., vol. 281 (8), pages 4920-4930 (2006)).\n(§2) Specifically, after an N-terminal biotin-labeled peptide having cofactor peptide SRC1 (amino acid sequence 676-700), which includes the nuclear receptor bonding LXXLL motif region, and the fluorescent fusion proteins of the PPAR ligand binding domain were allowed to stand at room temperature for one hour, the energy transfer between the fluorescence donor and the fluorescence acceptor was measured to detect the test compound dose reaction to the cofactor.\n(§3) A Perkin-Elmer Envision Multilabel Plate Reader was used for measurement. During measurement, 320 nm was used as the excitation wavelength, and 615 nm and 665 nm were used as the emission wavelengths. The test compound was dissolved in DMSO (dimethylsulfoxide) to a final solution concentration of 1%."}, "[3]": {"assay": "Weight gain test (in vivo)", "conditions": "ob/ob mice; for Weight gain: Example 8 10 mg/kg, rosiglitazone 3 mg/kg, days 1-25", "experimental": "(§4) A test compound (the compound of Example 8, n=8) was given orally to 5- to 6-week-old ob/ob mice (C57b1/6ob/ob female mice) at a dose of 10 mg/kg for 1-25 days, then a test compound (the compound of Example 8) was given at 20 mg/kg for 26-33 days. An oral load test of 2 g/kg of glucose was carried out while the mice were fasted, and the blood glucose concentration was measured at −30, 0, 30, 60, 90, 120, and 180 minutes. For comparison, 3 mg/kg of rosiglitazone (n=8) were given for 1-25 days, then 3 mg/kg of rosiglitazone were given for 26-33 days, and the blood glucose concentration was measured in the same manner. Table 7 indicates the results.\nThe body weight of mice was measured when 10 mg/kg of the same test compound (the compound of Example 8) were given for 1-25 days, and 3 mg/kg of rosiglitazone were given for 1-25 days. Table 8 indicates the results."}, "[4]": {"molecular_target": "T3, human nuclear receptor PPARγ (Homo sapiens, UniProt P37231)", "T3 sequence (P37231 238-503 limits assumed)": "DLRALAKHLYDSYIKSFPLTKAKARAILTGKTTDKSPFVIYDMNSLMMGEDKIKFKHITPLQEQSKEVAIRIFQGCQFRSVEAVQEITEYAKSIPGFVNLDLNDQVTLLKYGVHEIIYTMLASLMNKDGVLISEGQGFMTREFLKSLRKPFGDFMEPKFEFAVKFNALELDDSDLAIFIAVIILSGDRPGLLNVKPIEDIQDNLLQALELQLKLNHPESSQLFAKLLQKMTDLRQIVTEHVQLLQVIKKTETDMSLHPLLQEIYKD", "assay": "PPAR agonist activity measurement test (cell-free FRET cofactor assay), PPARγ", "type": "biochemical", "experimental": "as §1, §2, §3"}, "[5]": {"molecular_target": "T4, human nuclear receptor PPARα (Homo sapiens, UniProt Q07869)", "T4 sequence (Q07869 239-466 limits assumed)": "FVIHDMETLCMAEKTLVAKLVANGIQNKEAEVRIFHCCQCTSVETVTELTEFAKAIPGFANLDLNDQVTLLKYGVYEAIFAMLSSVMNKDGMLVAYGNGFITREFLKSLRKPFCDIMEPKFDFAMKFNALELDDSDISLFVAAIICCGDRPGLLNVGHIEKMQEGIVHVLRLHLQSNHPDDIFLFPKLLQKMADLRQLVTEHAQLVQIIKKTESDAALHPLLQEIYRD", "assay": "PPAR agonist activity measurement test (cell-free FRET cofactor assay), PPARα", "type": "biochemical", "conditions": "result in words", "experimental": "as §1, §2, §3"}, "[6]": {"system": "ob/ob mice (C57b1/6ob/ob female mice)", "assay": "Glucose tolerance test (in vivo)", "conditions": "for Glucose concentration: fasted ob/ob mice, oral load 2 g/kg glucose, Example 8 oral 10 mg/kg days 1-25 then 20 mg/kg days 26-33, rosiglitazone 3 mg/kg, n=8", "experimental": "as §4"}},
  "data": [
    {"smiles": "CCCc1nc(CSc2ccc(Oc3ccc4nc(COc5ccc(CC6SC(=O)NC6=O)cc5)n(C)c4c3)cc2)c(C(=O)OCC)n1Cc1ccc(-c2ccccc2-c2nnn[nH]2)cc1", "note": "(centres unmarked) [Example 8, 4-[4-{2-[4-(2,4-dioxothiazolidin-5-ylmethyl)phenoxymethyl]-1-methyl-1H-benzimidazol-6-yloxy}phenylthiomethyl]-2-propyl-1-[2′-(1H-tetrazol-5-yl)biphenyl-4-ylmethyl]-1H-imidazole-5-carboxylic acid ethyl ester]", "values": [
      {"measurement": "inhibition at 0.001 µM", "setting": "[1]", "result": 73, "unit": "%"},
      {"measurement": "activity against PPARβ", "setting": "[2]", "result": "did not exhibit activity"},
      {"measurement": "Weight gain", "setting": "[3]; day 0", "result": 0, "unit": "g"},
      {"measurement": "Weight gain", "setting": "[3]; day 4", "result": "0.8 ± 0.0", "unit": "g"},
      {"measurement": "Weight gain", "setting": "[3]; day 11", "result": "3.3 ± 0.2", "unit": "g"},
      {"measurement": "Weight gain", "setting": "[3]; day 14", "result": "4.2 ± 0.3", "unit": "g"},
      {"measurement": "Weight gain", "setting": "[3]; day 18", "result": "5.9 ± 0.3", "unit": "g"},
      {"measurement": "Weight gain", "setting": "[3]; day 24", "result": "6.8 ± 0.2", "unit": "g"},
      {"measurement": "weight gain compared to the control", "setting": "[3]; 10 mg/kg days 1-25, result in words", "result": "nearly comparable weight gain to the control"},
      {"measurement": "weight gain compared to rosiglitazone", "setting": "[3]; 10 mg/kg days 1-25 vs rosiglitazone 3 mg/kg, result in words", "result": "significantly inhibited weight gain compared to rosiglitazone"},
      {"measurement": "activity against PPARγ", "setting": "[4]; FRET agonist assay, result in words", "result": "exhibited activity only against PPARy"},
      {"measurement": "EC50", "setting": "[4]; FRET, cofactor peptide SRC1, twelve concentrations 50 μM to 0 nM, 1% DMSO, read-out: ED50 (the source's name)", "result": 114, "unit": "nM"},
      {"measurement": "activity against PPARα", "setting": "[5]", "result": "did not exhibit activity"},
      {"measurement": "Glucose concentration", "setting": "[6]; 0 min", "result": "6.4 ± 0.6", "unit": "mmol/L"},
      {"measurement": "Glucose concentration", "setting": "[6]; 30 min", "result": "12.5 ± 0.9", "unit": "mmol/L"},
      {"measurement": "Glucose concentration", "setting": "[6]; 60 min", "result": "7.3 ± 0.9", "unit": "mmol/L"},
      {"measurement": "Glucose concentration", "setting": "[6]; 120 min", "result": "5.5 ± 0.6", "unit": "mmol/L"},
      {"measurement": "Glucose concentration", "setting": "[6]; 180 min", "result": "6.1 ± 0.6", "unit": "mmol/L"},
      {"measurement": "increase in blood glucose concentration compared to the control", "setting": "[6]; ob/ob mice, oral glucose load 2 g/kg, result in words", "result": "significantly inhibited increase in blood glucose concentration compared to the control"},
      {"measurement": "Glucose concentration", "setting": "[6]; −30 min", "result": "7.6 ± 0.9", "unit": "mmol/L"}
    ]}
  ]
}
